The results in this text go back to patent US20250171404A1, “PCNA INHIBITORS AND USES THEREOF” (CITY OF HOPE, priority 2022, published 2025).

Molecules are shown by their SMILES.

The target of assay [1] is T1, PCNA (Homo sapiens, UniProt P12004).
T1 construct: made in house; host or cells: E. coli Rosetta 2 (DE3)
In words: Thermal denaturation (thermal shift) assay. To be noted: 9 μM PCNA; 10 or 30 μM compound; dose dependent. The assay is classed as binding. How it is done: FIGS. 1A-1E. AOH1160 analog interactions with PCNA. FIG. 1A: Thermal shift assay: Normalized inverse derivative thermal denaturation plots of 9 μM apo-PCNA with DMSO control is depicted with a black dashed line and PCNA in the presence of 10 μM AOH1160LE is shown in light grey and 30 μM AOH1160LE in dark grey. ΔTm values are provided. FIG. 1B: As described in FIG. 1A, in the presence of 10 μM AOH1996 depicted in light grey and 30 μM AOH1996 depicted in dark grey. FIG. 1C: Four monomers (chains A-D) of PCNA are present in the asymmetric unit of the crystal. Chains A, B, and C form the homotrimer biological unit, while chain Dis orientated perpendicular to the plane of the ring, below the interface of chains B and C and it belongs to an adjacent ring. Inset: Three molecules of AOH1160LE bind in and adjacent to the PIP box cavity of each of the PCNA ring subunits. The omit map, gray mesh, is contoured to 1.56. Two PCNA monomer subunits from adjacent rings stack against each other, placing the PIP box and IDCLs of each subunit in opposing directions. FIG. 1D: The three AOH1160LE molecules are shown as stick figure representations. Two of the compounds, left and central, bind into the PIP box cavity at known PCNA-partner/compound interaction sites. […] The electrostatic surface maps are depicted with Poisson-Boltzmann electrostatic surface potentials shown in dark grey and light grey, corresponding to −10 to +10 kT/e respectively.
Targeting the PIP box and APIM binding domain of PCNA. AOH1160, a small molecule PCNA ligand, targets the cancer-distinct L126-Y133 region of PCNA (Malkas et al., 2006) and is selectively toxic to cancer cells (Gu et al., 2018). […]
Thermal denaturation assay for PCNA-AOH1996 interaction. […] Fluorescence intensity was measured within the excitation/emission ranges 470-505/540-700 nm.

In assay [2] the test system is MDA-MB-468 xenograft tumors. In words: Xenograft tumor model, breast cancer. Particulars: 40 mg/kg twice daily, oral, vs vehicle. The class given is in vivo, mice. How it is done: FIGS. 4A-4H. Pharmacokinetics and anti-tumor growth activity of AOH1996 in vivo. FIG. 4A: After oral administration, the plasma concentrations of AOH1996 from three male and three female ES1^e/SCID mice at the indicated time points were averaged and graphed ±S.D. The inset contains PK parameters determined by a standard noncompartmental method. FIG. 4B: A similar PK study of AOH1996 was performed in dogs. FIGS. 4C-4E: Mice bearing the xenograft tumors of neuroblastoma (FIG. 4C: SK-N-BE(2)c), breast cancer (FIG. 4D: MDA-MB-468), and small-cell lung cancer (FIG. 4E: H82) were given vehicle only (black) or 40 mg/kg of AOH1996 (grey) twice daily immediately after the first measurement. Tumor sizes were measured by a dial caliper each week. Tumor volumes (0.4×L×W^2) were averaged and graphed ±S.E. (*, P<0.01). FIG. 4F: Animal body weight was monitored throughout the studies as an indicator of toxicity. […] FIG. 4G: The levels of phosphor-Chk1 (pChk1) and γH2A.X in SK-N-BE(2)c derived tumor samples were analyzed by IHC. […] The p values determined by the Log-rank (Mantel-Cox) test between combination treatment and each of the control groups are p=0.0003 (Combination vs. NoRx), p=0.005 (Combination vs. AOH1996 alone), and p=0.024 (Combination vs. CPT-11 alone).
In vivo tumor model. […] Tumor size and animal weight were measured weekly. […]

T1 sequence (P12004 whole entry): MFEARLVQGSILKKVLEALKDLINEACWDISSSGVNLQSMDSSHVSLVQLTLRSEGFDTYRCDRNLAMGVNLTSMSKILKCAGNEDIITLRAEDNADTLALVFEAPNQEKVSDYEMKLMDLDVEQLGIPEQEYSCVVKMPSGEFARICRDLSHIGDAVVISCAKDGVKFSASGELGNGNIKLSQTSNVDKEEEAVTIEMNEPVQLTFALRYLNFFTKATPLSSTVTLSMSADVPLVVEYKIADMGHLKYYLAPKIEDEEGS

Consider `COc1cccc(Oc2ccccc2NC(=O)CNC(=O)c2cccc3ccccc23)c1` [AOH1996, N-(2-((2-(3-methoxyphenoxy)phenyl)amino)-2-oxoethyl)-1-naphthamide], for which the “shift of protein melting curves (ΔTm)” value in assay [1] is ≤ 1.5 °C. Further, in assay [2], the tumor burden entry was “significantly reduced tumor burden”.
